This assay concerns CD2F1 mice, L1210 leukemia ip, survival T/C. The assay can be described thus: NCI In Vivo Anticancer Drug Screen. Data for tumor model L1210 Leukemia (intraperitoneal) in CD2F1 (CDF1) mice. The note with it: higher = longer survival. The gist of the method: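 Antitumor effect is scored in animals hosting a serially transplanted tumor. Values compare compound-dosed animals against vehicle-only controls as a simple quotient.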

[1] abbreviates: endpoint: mean survival time, dose: 25.0 mg/kg/injection, schedule: Q01DX009 (ip), vehicle: saline with Tween-80.
The mark [2] stands for this setting: endpoint: mean survival time, dose: 50.0 mg/kg/injection, schedule: Q01DX009 (ip), vehicle: saline with Tween-80.
The mark [3] stands for this setting: endpoint: mean survival time, dose: 100.0 mg/kg/injection, schedule: Q01DX009 (ip), vehicle: saline with Tween-80.
Where [4] appears, read: endpoint: mean survival time, dose: 25.0 mg/kg/injection, schedule: Q04DX003 (ip), vehicle: saline with Tween-80.
The mark [5] stands for this setting: endpoint: mean survival time, dose: 50.0 mg/kg/injection, schedule: Q04DX003 (ip), vehicle: saline with Tween-80.
Setting [6] is: endpoint: mean survival time, dose: 100.0 mg/kg/injection, schedule: Q04DX003 (ip), vehicle: saline with Tween-80.
Setting [7] is: endpoint: mean survival time, dose: 200.0 mg/kg/injection, schedule: Q04DX003 (ip), vehicle: saline with Tween-80.
Setting [8] is: endpoint: mean survival time, dose: 400.0 mg/kg/injection, schedule: Q04DX003 (ip), vehicle: saline with Tween-80.
Setting [9] is: endpoint: mean survival time, dose: 200.0 mg/kg/injection, schedule: Q01DX009 (ip), vehicle: saline with Tween-80.
Setting [10] is: endpoint: mean survival time, dose: 400.0 mg/kg/injection, schedule: Q01DX009 (ip), vehicle: saline with Tween-80.

Each structure is given as a SMILES string. “And” between values parts separate entries of the source, which are not always exact repeats. Identical values can stand only once. Inconclusive results and toxic doses are left out. Non-standard residues stand in square brackets, D forms with d. Residues, ends and D or L forms follow the SMILES beside them. ξ: configuration not given here. *: point of attachment. ξF = NC(Cc1ccccc1)C(=O)O; ClAc = O=C(CCl)*

For the compound `COCC/C=C/CCl`, the T/C was 100 % of control under setting [1], 92 % of control under setting [2] and 100 % of control under setting [3].
For the compound `CC(=O)NNC(=O)c1ccccc1`, the T/C was 95 % of control and 105 % of control (endpoint: mean survival time, dose: 50.0 mg/kg/injection, schedule: Q01DX009 (ip), vehicle: other); 97 % of control and 108 % of control (endpoint: mean survival time, dose: 100.0 mg/kg/injection, schedule: Q01DX009 (ip), vehicle: other); 93 % of control and 97 % of control (endpoint: mean survival time, dose: 200.0 mg/kg/injection, schedule: Q01DX009 (ip), vehicle: other); 90 % of control (endpoint: mean survival time, dose: 300.0 mg/kg/injection, schedule: Q01DX009 (ip), vehicle: other).
For the compound `CCOC(=O)C1(C(=O)OCC)CCC(O)N1C(=O)Cc1ccccc1[N+](=O)[O-]` (configuration not stated), the T/C is, setting by setting: (endpoint: mean survival time, dose: 100.0 mg/kg/injection, schedule: Q01DX009 (ip), vehicle: Klucel (hydroxypropylcellulose) (HPC)) 101 % of control; (endpoint: mean survival time, dose: 200.0 mg/kg/injection, schedule: Q01DX009 (ip), vehicle: Klucel (hydroxypropylcellulose) (HPC)) 97 % of control.
Turning to `O=C1C=C[C@H](O)[C@@]2(CO)O[C@@H]12`, the T/C is, setting by setting: (endpoint: median survival time, dose: 0.31 mg/kg/injection, schedule: Q01DX009 (ip), vehicle: saline with Tween-80) 102 % of control; (endpoint: median survival time, dose: 0.62 mg/kg/injection, schedule: Q01DX009 (ip), vehicle: saline with Tween-80) 101 % of control; (endpoint: median survival time, dose: 1.25 mg/kg/injection, schedule: Q01DX009 (ip), vehicle: saline with Tween-80) 118 % of control and 110 % of control; (endpoint: median survival time, dose: 2.5 mg/kg/injection, schedule: Q01DX009 (ip), vehicle: saline with Tween-80) 121 % of control and 123 % of control; (endpoint: median survival time, dose: 5.0 mg/kg/injection, schedule: Q01DX009 (ip), vehicle: saline with Tween-80) 114 % of control; (endpoint: median survival time, dose: 10.0 mg/kg/injection, schedule: Q01DX009 (ip), vehicle: saline with Tween-80) 118 % of control.
Take `O=C(C=C(C(F)(F)F)C(F)(F)F)c1ccco1`: the T/C is 105 % of control (endpoint: mean survival time, dose: 12.5 mg/kg/injection, schedule: Q04DX003 (ip), vehicle: saline with Tween-80); 102 % of control under setting [4]; 94 % of control under setting [5].
Consider `O=C(CCl)NCC(=O)NC(Cc1ccccc1)C(=O)O` (configuration not stated) (ClAc-Gly-[ξF]-OH), for which the T/C under setting [6] is 98 % of control, the T/C under setting [7] is 96 % of control and the T/C under setting [8] was 96 % of control.
In the case of `CCOC(=O)C(O)(C(=O)OCC)C(C)C`, the T/C under setting [3] is 94 % of control, the T/C under setting [9] was 100 % of control and the T/C under setting [10] is 94 % of control.
Regarding `c1cnc2c(c1)Nc1cc3ccccc3cc1N2`, the T/C reads like this: (endpoint: mean survival time, dose: 100.0 mg/kg/injection, schedule: Q04DX002 (ip), vehicle: saline + alcohol) 100 % of control; (endpoint: mean survival time, dose: 200.0 mg/kg/injection, schedule: Q04DX002 (ip), vehicle: saline + alcohol) 89 % of control; (endpoint: mean survival time, dose: 400.0 mg/kg/injection, schedule: Q04DX002 (ip), vehicle: saline + alcohol) 89 % of control.
`Nc1n[nH]c(=O)[nH]1`: the T/C (endpoint: mean survival time, dose: 31.3 mg/kg/injection, schedule: Q03HX024 (ip), vehicle: saline) was 106 % of control; the T/C (endpoint: mean survival time, dose: 62.5 mg/kg/injection, schedule: Q03HX024 (ip), vehicle: saline) is 106 % of control; the T/C (endpoint: mean survival time, dose: 125.0 mg/kg/injection, schedule: Q03HX024 (ip), vehicle: saline) is 109 % of control; the T/C (endpoint: mean survival time, dose: 250.0 mg/kg/injection, schedule: Q03HX024 (ip), vehicle: saline) was 161 % of control.
Take `CC1OC(=O)C(C(C)C)NC(=O)C(C(C)C)OC(=O)C(C(C)C)NC(=O)C(C)OC(=O)C(C(C)C)NC(=O)C(C(C)C)OC(=O)C(C(C)C)NC(=O)C(C)OC(=O)C(C(C)C)NC(=O)C(C(C)C)OC(=O)C(C(C)C)NC1=O` (configuration not stated): the T/C (endpoint: mean survival time, dose: 1.25 mg/kg/injection, schedule: Q01DX009 (ip), vehicle: saline with Tween-80) is 109 % of control; the T/C (endpoint: mean survival time, dose: 2.5 mg/kg/injection, schedule: Q01DX009 (ip), vehicle: saline with Tween-80) was 103 % of control and 107 % of control; the T/C (endpoint: mean survival time, dose: 5.0 mg/kg/injection, schedule: Q01DX009 (ip), vehicle: saline with Tween-80) is 103 % of control and 110 % of control; the T/C (endpoint: mean survival time, dose: 10.0 mg/kg/injection, schedule: Q01DX009 (ip), vehicle: saline with Tween-80) was 106 % of control; the T/C (endpoint: mean survival time, dose: 20.0 mg/kg/injection, schedule: Q01DX009 (ip), vehicle: saline with Tween-80) is 112 % of control.
Take `CCCNc1ncc(C(=O)O)c(=O)[nH]1`: the T/C (endpoint: mean survival time, dose: 1.56 mg/kg/injection, schedule: Q01DX009 (ip), vehicle: saline sonified) is 100 % of control; the T/C (endpoint: mean survival time, dose: 3.1 mg/kg/injection, schedule: Q01DX009 (ip), vehicle: saline sonified) was 100 % of control; the T/C (endpoint: mean survival time, dose: 6.25 mg/kg/injection, schedule: Q01DX009 (ip), vehicle: saline sonified) is 102 % of control.
`CN1CCC(c2ccccc2)(c2ccccc2)OC1`: the T/C under setting [1] was 106 % of control, the T/C under setting [2] was 98 % of control and the T/C under setting [3] was 110 % of control.
Take `O=[N+]([O-])c1ccccc1C[P+](c1ccccc1)(c1ccccc1)c1ccccc1`: the T/C is 98 % of control under setting [4] and 114 % of control under setting [5].
With `CCCCCCCCCCCCCCCCCCOCC(COP(=O)([O-])OCC[N+](C)(C)C)OC` (configuration not stated), the T/C is 98 % of control (endpoint: median survival time, dose: 6.25 mg/kg/injection, schedule: Q01DX009 (ip), vehicle: suspension in saline); 93 % of control (endpoint: median survival time, dose: 12.5 mg/kg/injection, schedule: Q01DX009 (ip), vehicle: suspension in saline); 104 % of control (endpoint: median survival time, dose: 25.0 mg/kg/injection, schedule: Q01DX009 (ip), vehicle: suspension in saline); 88 % of control (endpoint: median survival time, dose: 50.0 mg/kg/injection, schedule: Q01DX009 (ip), vehicle: suspension in saline).
Regarding `OC(COc1ccccc1)COc1ccccc1`, the T/C is 98 % of control under setting [3], 93 % of control under setting [9] and 89 % of control under setting [10].
Turning to `COC1=CC(=O)C=C(OC)C1=O`, the T/C by setting is: (endpoint: mean survival time, dose: 4.0 mg/kg/injection, schedule: Q01DX009 (ip), vehicle: saline) 96 % of control; (endpoint: mean survival time, dose: 8.0 mg/kg/injection, schedule: Q01DX009 (ip), vehicle: saline) 98 % of control; (endpoint: mean survival time, dose: 16.0 mg/kg/injection, schedule: Q01DX009 (ip), vehicle: saline) 96 % of control.
With `O=C(Nc1ccc2cc(S(=O)(=O)O)ccc2c1)c1ccc(N=Nc2c(S(=O)(=O)O)cc3cc(S(=O)(=O)O)cc(NC(=O)c4ccccc4)c3c2O)cc1`, the T/C reads like this: under setting [2], 96 % of control; under setting [3], 101 % of control.
`CCCCCCCCCCCCCCCCOc1ccc(S(=O)(=O)N(C)C)cc1[N+](=O)[O-]`: the T/C reads like this: under setting [6], 90 % of control; under setting [7], 96 % of control; under setting [8], 90 % of control.
As to `C(=N\Nc1ccccc1)/c1ccccc1`, the T/C by setting is: (endpoint: mean survival time, dose: 100.0 mg/kg/injection, schedule: Q01DX001 (ip), vehicle: saline with Tween-80) 107 % of control; (endpoint: mean survival time, dose: 100.0 mg/kg/injection, schedule: Q04DX003 (ip), vehicle: Klucel (hydroxypropylcellulose) (HPC)) 106 % of control; (endpoint: mean survival time, dose: 200.0 mg/kg/injection, schedule: Q01DX001 (ip), vehicle: saline with Tween-80) 94 % of control; (endpoint: mean survival time, dose: 200.0 mg/kg/injection, schedule: Q04DX003 (ip), vehicle: Klucel (hydroxypropylcellulose) (HPC)) 98 % of control; (endpoint: mean survival time, dose: 400.0 mg/kg/injection, schedule: Q01DX001 (ip), vehicle: saline with Tween-80) 100 % of control; (endpoint: mean survival time, dose: 400.0 mg/kg/injection, schedule: Q04DX003 (ip), vehicle: Klucel (hydroxypropylcellulose) (HPC)) 96 % of control.
In the case of `O=C(Nc1cccc2ccccc12)SCc1ccccc1`, the T/C (endpoint: mean survival time, dose: 50.0 mg/kg/injection, schedule: Q04DX002 (ip), vehicle: Klucel (hydroxypropylcellulose) (HPC)) is 88 % of control; the T/C (endpoint: mean survival time, dose: 100.0 mg/kg/injection, schedule: Q04DX002 (ip), vehicle: Klucel (hydroxypropylcellulose) (HPC)) is 106 % of control; the T/C (endpoint: mean survival time, dose: 200.0 mg/kg/injection, schedule: Q04DX002 (ip), vehicle: Klucel (hydroxypropylcellulose) (HPC)) is 95 % of control.
Take `Cc1ccc2c(ccc3nc(N)nc(N)c32)c1`: the T/C reads like this: (endpoint: mean survival time, dose: 5.0 mg/kg/injection, schedule: Q01DX001 (ip), vehicle: saline) 100 % of control; (endpoint: mean survival time, dose: 10.0 mg/kg/injection, schedule: Q01DX001 (ip), vehicle: saline) 89 % of control; (endpoint: mean survival time, dose: 20.0 mg/kg/injection, schedule: Q01DX001 (ip), vehicle: saline) 95 % of control; (endpoint: mean survival time, dose: 40.0 mg/kg/injection, schedule: Q01DX001 (ip), vehicle: saline) 95 % of control.
